Source: patent US6521613B2, “Lactam compounds for penetration enhancement” (Allergan, Inc., priority 2001, dated 2003)

Test system: rabbit cornea
Test: Penetration enhancement testing: rate of diffusion of drug between chambers separated by rabbit cornea
Format: in vitro ADME
Settings: test drugs prednisolone, guanethidine, flurbiprofen, compound used as penetration enhancer
Protocol: Permeation efficiencies are determined by measuring the rate of diffusion of drug between posterior and anterior chambers separated by rabbit cornea. Suitable test drugs include prednisolone, guanethidine, and flurbiprofen. Compounds II and V, described in Examples 2 and 4 above, are tested penetration enhancers. Water, acetone, ethanol, and GBR (glutathione-buffered Ringer's solution) are convenient vehicles used alone or in combination together with the test drugs and the proposed penetration enhancers. The relative rates of diffusion can be determined indirectly by measuring pH versus time in the respective chambers, or by HPLC.

Structure (SMILES) | penetration or permeation of test drugs relative to similar compositions without the present compounds
CCOCCOCCOCCN1CCCCCC1=O [Compound II, N-triethoxyethylether Caprolactam] | enhanced penetration or permeation
O=C1CCCCCN1CCOCCOCCO [Compound V, N-triethyleneglycol Caprolactam] | enhanced penetration or permeation
